Source: patent US20050009840A1 (SUGEN, INC., priority 2003, published 2005)

target: T1, Met kinase domain (GST fusion protein) (Homo sapiens, UniProt P08581); test: Met transphosphorylation assay (ELISA, poly(glu-tyr) substrate); format: biochemical; conditions: Table 2; read-out: Met IC50;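 note: Cell-free ELISA with plate-bound poly(Glu:Tyr 4:1) phosphorylated by GST-fused Met kinase domain plus ATP and Mn2+, phosphotyrosine detected by anti-phosphotyrosine antibody with HRP and ABTS read-out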
T1 construct: Purified GST fusion protein containing the Met kinase domain
T1 sequence (P08581 1078-1345 limits assumed): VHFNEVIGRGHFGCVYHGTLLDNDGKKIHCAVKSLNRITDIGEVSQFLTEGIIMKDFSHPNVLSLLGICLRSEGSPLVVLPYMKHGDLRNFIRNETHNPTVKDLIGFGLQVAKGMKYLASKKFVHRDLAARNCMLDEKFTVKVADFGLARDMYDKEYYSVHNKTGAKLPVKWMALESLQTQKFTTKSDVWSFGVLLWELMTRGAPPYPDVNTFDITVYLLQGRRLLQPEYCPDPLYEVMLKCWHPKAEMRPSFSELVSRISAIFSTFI

| SMILES | IC50 [µM] |
| --- | --- |
| CC(Oc1cc(-c2cccc(C(=O)N3CCC[C@@H]3CN3CCCC3)c2)cnc1N)c1c(F)ccc(F)c1Cl (some centres unmarked) [Example I-351] | 0.23 |
| CC(Oc1cc(-c2cccc(C(=O)N3CCC[C@H]3CN3CCCC3)c2)cnc1N)c1c(F)ccc(F)c1Cl (some centres unmarked) [Example I-352] | 0.15 |
| CC(Oc1cc(-c2ccc(OCCN3CCOCC3)cc2)cnc1N)c1c(F)ccc(F)c1Cl (centres unmarked) [Example I-353, 3-[1-(2-Chloro-3,6-difluoro-phenyl)-ethoxy]-5-[4-(2-morpholin-4-yl-ethoxy)-phenyl]-pyridin-2-ylamine] | 0.23 |
| CC(Oc1cc(-c2cccc(OCCN3CCOCC3)c2)cnc1N)c1c(F)ccc(F)c1Cl (centres unmarked) [Example I-354, 3-[1-(2-Chloro-3,6-difluoro-phenyl)-ethoxy]-5-[3-(2-morpholin-4-yl-ethoxy)-phenyl]-pyridin-2-ylamine] | 0.22 |
| CC(Oc1cc(-c2ccc(OCCN3CCCC3)cc2)cnc1N)c1c(Cl)ccc(F)c1Cl (centres unmarked) [Example I-355, 3-[1-(2,6-Dichloro-3-fluoro-phenyl)-ethoxy]-5-[4-(2-pyrrolidin-1-yl-ethoxy)-phenyl]-pyridin-2-ylamine] | 0.068 |
| CC(Oc1cc(-c2ccc(OCCC3CCCN3C)cc2)cnc1N)c1c(Cl)ccc(F)c1Cl (centres unmarked) [Example I-356] | 0.079 |
| CC(Oc1cc(-c2ccc(OCCN3CCOCC3)cc2)cnc1N)c1c(Cl)ccc(F)c1Cl (centres unmarked) [Example I-357, 3-[1-(2,6-Dichloro-3-fluoro-phenyl)-ethoxy]-5-[4-(2-morpholin-4-yl-ethoxy)-phenyl]-pyridin-2-ylamine] | 0.13 |
| CC(Oc1cc(-c2cccc(OCCN3CCOCC3)c2)cnc1N)c1c(Cl)ccc(F)c1Cl (centres unmarked) [Example I-358, 3-[1-(2,6-Dichloro-3-fluoro-phenyl)-ethoxy]-5-[3-(2-morpholin-4-yl-ethoxy)-phenyl]-pyridin-2-ylamine] | 0.22 |
| CC(Oc1cc(-c2ccc(OCC(O)CN3CCOCC3)cc2)cnc1N)c1c(Cl)ccc(F)c1Cl (centres unmarked) [Example I-359, 1-(4-{6-Amino-5-[1-(2,6-dichloro-3-fluoro-phenyl)-ethoxy]-pyridin-3-yl}-phenoxy)-3-morpholin-4-yl-propan-2-ol] | 0.045 |
| CCN(CC)CCOc1ccc(-c2cnc(N)c(OC(C)c3c(Cl)ccc(F)c3Cl)c2)cc1 (centres unmarked) [Example I-360, 3-[1-(2,6-Dichloro-3-fluoro-phenyl)-ethoxy]-5-[4-(2-diethylamino-ethoxy)-phenyl]-pyridin-2-ylamine] | 0.033 |
| CC(Oc1cc(-c2ccc(OCC3CCCN(C)C3)cc2)cnc1N)c1c(Cl)ccc(F)c1Cl (centres unmarked) [Example I-361, 3-[1-(2,6-Dichloro-3-fluoro-phenyl)-ethoxy]-5-[4-(1-methyl-piperidin-3-ylmethoxy)-phenyl]-pyridin-2-ylamine] | 0.043 |
| CC(Oc1cc(-c2ccc(OCCN(C(C)C)C(C)C)cc2)cnc1N)c1c(Cl)ccc(F)c1Cl (centres unmarked) [Example I-362] | 0.052 |
| CC(Oc1cc(-c2ccc(OC3CCN(C)CC3)cc2)cnc1N)c1c(Cl)ccc(F)c1Cl (centres unmarked) [Example I-363, 3-[1-(2,6-Dichloro-3-fluoro-phenyl)-ethoxy]-5-[4-(1-methyl-piperidin-4-yloxy)-phenyl]-pyridin-2-ylamine] | 0.052 |
| CC(Oc1cc(-c2ccc(NS(C)(=O)=O)cc2)cnc1N)c1c(F)ccc(F)c1Cl (centres unmarked) [Example I-364, N-(4-{6-Amino-5-[1-(2-chloro-3,6-difluoro-phenyl)-ethoxy]-pyridin-3-yl}-phenyl)-methanesulfonamide] | 0.1 |

same assay, conditions: plain numbers in column Met IC50 (μM) of Table 2; read-out: Met IC50

| SMILES | IC50 [µM] |
| --- | --- |
| CC(Oc1cc(-c2ccc(N3CCCS3(=O)=O)cc2)cnc1N)c1c(F)ccc(F)c1Cl (centres unmarked) [Example I-365, 3-[1-(2-Chloro-3,6-difluoro-phenyl)-ethoxy]-5-[4-(1,1-dioxo-1lambda*6*- isothiazolidin-2-yl)-phenyl]-pyridin-2-ylamine] | 0.14 |
| CC(Oc1cc(-c2ccc(NS(C)(=O)=O)cc2)cnc1N)c1c(Cl)ccc(F)c1Cl (centres unmarked) [Example I-366, N-(4-{6-Amino-5-[1-(2,6-dichloro-3-fluoro-phenyl)-ethoxy]-pyridin-3-yl}-phenyl)-methanesulfonamide] | 0.076 |
| C[C@@H](Oc1cc(-c2ccc(NS(C)(=O)=O)cc2)cnc1N)c1c(F)ccc(F)c1Cl [Example I-368, N-(4-{6-Amino-5-[(R)-1-(2-chloro-3,6-difluoro-phenyl)-ethoxy]-pyridin-3-yl}-phenyl)-methanesulfonamide] | 0.066 |
| CC(Oc1cc(-c2ccsc2)cnc1N)c1c(Cl)ccc(F)c1Cl (centres unmarked) [Example I-369, 3-[1-(2,6-Dichloro-3-fluoro-phenyl)-ethoxy]-5-thiophen-3-yl-pyridin-2-ylamine] | 0.055 |
| CC(Oc1cc(-c2cc3ccccc3s2)cnc1N)c1c(Cl)ccc(F)c1Cl (centres unmarked) [Example I-370, 5-Benzo[b]thiophen-2-yl-3-[1-(2,6-dichloro-3-fluoro-phenyl)-ethoxy]-pyridin-2-ylamine] | 1.95 |
| CC(Oc1cc(-c2ccc(NC(=O)N3CCN(C)CC3)cc2)cnc1N)c1c(Cl)ccc(F)c1Cl (centres unmarked) [Example I-371, 4-Methyl-piperazine-1-carboxylic acid (4-{6-amino-5-[1-(2,6-dichloro-3-fluoro-phenyl)-ethoxy]-pyridin-3-yl}-phenyl)-amide] | 0.057 |
| CC(Oc1cc(-c2ccc(NC(=O)NCCN3CCCC3)cc2)cnc1N)c1c(Cl)ccc(F)c1Cl (centres unmarked) [Example I-372, 1-(4-{6-Amino-5-[1-(2,6-dichloro-3-fluoro-phenyl)-ethoxy]-pyridin-3-yl}-phenyl)-3-(2-pyrrolidin-1-yl-ethyl)-urea] | 0.21 |
| CC(Oc1cc(-c2ccc(NC(=O)NCCO)cc2)cnc1N)c1c(Cl)ccc(F)c1Cl (centres unmarked) [Example I-373, 1-(4-{6-Amino-5-[1-(2,6-dichloro-3-fluoro-phenyl)-ethoxy]-pyridin-3-yl}-phenyl)-3-(2-hydroxy-ethyl)-urea] | 0.064 |
| CC(Oc1cc(-c2ccc(NC(=O)NCCN3CCOCC3)cc2)cnc1N)c1c(Cl)ccc(F)c1Cl (centres unmarked) [Example I-374, 1-(4-{6-Amino-5-[1-(2,6-dichloro-3-fluoro-phenyl)-ethoxy]-pyridin-3-yl}-phenyl)-3-(2-morpholin-4-yl-ethyl)-urea] | 0.062 |
| CC(Oc1cc(-c2ccc(NC(=O)N3CC[C@@H](N)C3)cc2)cnc1N)c1c(Cl)ccc(F)c1Cl (stereo partly drawn) [Example I-375, (R)-3-Amino-pyrrolidine-1-carboxylix acid (4-{6-amino-5-[1-(2,6-dichloro-3-fluoro-phenyl)-ethoxy]-pyridin-3-yl}-phenyl)-amide] | 0.053 |
| CC(Oc1cc(-c2ccc(NC(=O)N3CC[C@H](N)C3)cc2)cnc1N)c1c(Cl)ccc(F)c1Cl (stereo partly drawn) [Example I-376, (S)-3-Amino-pyrrolidine-1-carboxylic acid (4-{6-amino-5-[1-(2,6-dichloro-3-fluoro-phenyl)-ethoxy]-pyridin-3-yl}-phenyl)-amide] | 0.052 |
| CC(Oc1cc(-c2ccc(NC(=O)NC3CCN(C)CC3)cc2)cnc1N)c1c(Cl)ccc(F)c1Cl (centres unmarked) [Example I-377, 1-(4-{6-Amino-5-[1-(2,6-dichloro-3-fluoro-phenyl)-ethoxy]-pyridin-3-yl}-phenyl)-3-(1-methyl-pipendin-4-yl)-urea] | 0.04 |
| CC(Oc1cc(-c2ccc(NC(=O)NC3CCN(C)CC3)cc2)cnc1N)c1c(F)ccc(F)c1Cl (centres unmarked) [Example I-378, 1-(4-{6-Amino-5-[1-(2-chloro-3,6-difluoro-phenyl)-ethoxy]-pyridin-3-yl}-phenyl)-3-(1-methyl-pipendin-4-yl)-urea] | 0.038 |
| CC(Oc1cc(-c2ccc(NC(=O)N3CC[C@@H](N)C3)cc2)cnc1N)c1c(F)ccc(F)c1Cl (stereo partly drawn) [Example I-379, (R)-3-Amino-pyrrolidine-1-carboxylic acid (4-{6-amino-5-[1-(2-chloro-3,6-difluoro-phenyl)-ethoxy]-pyridin-3-yl}-phenyl)-amide] | 0.069 |
| CC(Oc1cc(-c2ccc(NC(=O)N3CC[C@H](N)C3)cc2)cnc1N)c1c(F)ccc(F)c1Cl (stereo partly drawn) [Example I-380, (S)-3-Amino-pyrrolidine-1-carboxylic acid (4-{6-amino-5-[1-(2-chloro-3,6-difluoro-phenyl)-ethoxy}-pyridin-3-yl}-phenyl)-amide] | 0.075 |
| CC(Oc1cc(-c2ccc(NC(=O)NCCO)cc2)cnc1N)c1c(F)ccc(F)c1Cl (centres unmarked) [Example I-381, 1-(4-{6-Amino-5-[1-(2-chloro-3,6-difluoro-phenyl)-ethoxy]-pyridin-3-yl}-phenyl)-3-(2-hydroxy-ethyl)-urea] | 0.11 |
| CC(Oc1cc(-c2ccc(NC(=O)N3CCN(C)CC3)cc2)cnc1N)c1c(F)ccc(F)c1Cl (centres unmarked) [Example I-382, 4-Methyl-piperazine-1-carboxylic acid (4-{6-amino-5-[1-(2-chloro-3,6-difluoro-phenyl)-ethoxy]-pyridin-3-yl}-phenyl)-amine] | 0.082 |
| CC(Oc1cc(-c2ccc(NC(=O)NCCN3CCCC3)cc2)cnc1N)c1c(F)ccc(F)c1Cl (centres unmarked) [Example I-383, 1-(4-{6-Amino-5-[1-(2-chloro-3,6-difluoro-phenyl)-ethoxy]-pyridin-3-yl}-phenyl)-3-(2-pyrrolidin-1-yl-ethyl)-urea] | 0.11 |
| CC(Oc1cc(-c2ccc(NC(=O)NCCN3CCOCC3)cc2)cnc1N)c1c(F)ccc(F)c1Cl (centres unmarked) [Example I-384, 1-(4-{6-Amino-5-[1-(2-chloro-3,6-difluoro-phenyl)-ethoxy]-pyridin-3-yl}-phenyl)-3-(2-morpholin-4-yl-ethyl)-urea] | 0.13 |
| CC(Oc1cc(-c2ccc(NC(=O)N3CCC[C@@H]3CN3CCCC3)cc2)cnc1N)c1c(F)ccc(F)c1Cl (stereo partly drawn) [Example I-385, (R)-2-Pyrrolidin-1-ylmethyl-pyrrolidine-1-carboxylic acid (4-{6-amino-5-[1-(2-chloro-3,6-difluoro-phenyl)-ethoxy]-pyridin-3-yl}-phenyl)-amide] | 0.13 |
| CC(Oc1cc(-c2cccc(C(=O)N3C[C@@H](C)N[C@@H](C)C3)c2)cnc1N)c1c(Cl)cccc1Cl (stereo partly drawn) [Example I-387, (3-{6-Aminno-5-[1-(2,6-dichloro-phenyl)-ethoxy]-pyridin-3-yl}-phenyl)-((3R,5S)-3,5-dimethyl-piperazin-1-yl)-methanone] | 0.16 |
